Results reported in ChEMBL document CHEMBL1127448, “Synthesis, ligand binding, and QSAR (CoMFA and classical) study of 3 beta-(3'-substituted phenyl)-, 3 beta-(4'-substituted phenyl)-, and 3 beta-(3',4'-disubstituted phenyl)tropane-2 beta-carboxylic acid methyl esters” (J Med Chem, 1994).

Each molecule was assayed against Sodium-dependent dopamine transporter (Rattus norvegicus, UniProt P23977) (assay: Concentration required to inhibit 50% of radioligand binding ([3H]WIN-35428) to the dopamine (DA) transporter in rat).
Sequence of Sodium-dependent dopamine transporter (P23977 whole entry): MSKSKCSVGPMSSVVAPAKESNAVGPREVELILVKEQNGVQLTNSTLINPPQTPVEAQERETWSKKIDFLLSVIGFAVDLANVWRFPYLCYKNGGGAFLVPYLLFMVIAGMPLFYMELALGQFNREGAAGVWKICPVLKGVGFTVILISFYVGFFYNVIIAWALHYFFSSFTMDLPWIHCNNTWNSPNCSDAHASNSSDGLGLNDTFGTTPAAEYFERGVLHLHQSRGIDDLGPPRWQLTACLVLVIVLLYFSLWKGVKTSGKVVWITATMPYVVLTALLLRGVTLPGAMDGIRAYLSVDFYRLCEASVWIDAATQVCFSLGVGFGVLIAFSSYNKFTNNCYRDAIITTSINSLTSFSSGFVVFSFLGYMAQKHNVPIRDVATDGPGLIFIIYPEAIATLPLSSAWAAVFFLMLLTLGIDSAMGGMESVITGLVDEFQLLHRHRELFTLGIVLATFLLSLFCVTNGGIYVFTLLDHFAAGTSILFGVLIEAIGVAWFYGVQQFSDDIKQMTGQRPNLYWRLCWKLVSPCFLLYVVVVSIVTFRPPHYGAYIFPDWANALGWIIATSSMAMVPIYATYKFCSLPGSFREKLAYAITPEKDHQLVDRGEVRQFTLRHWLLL

Compared with `CCC(=O)Nc1ccc([C@H]2C[C@H]3CCC([C@H]2C(=O)OC)N3C)cc1`, `COC(=O)C1C2CC[C@H](C[C@@H]1c1ccc(O)cc1)N2C` (some centres not stated) is 10-fold lower in IC50: 121 nM for the first, 12.1 nM for the second. The second is the more potent here.

First: COC(=O)C1C2CC[C@H](C[C@H]1c1ccc(Br)cc1)N2C (some centres not stated)
Second: COC(=O)[C@@H]1C2CC[C@H](C[C@@H]1c1ccc(N)cc1)N2C
The IC50 of the first is 5.8-fold lower: 1.69 nM for the first, 9.84 nM for the second. The first is the more potent here.

Compared with `COC(=O)C1C2CC[C@@H](C[C@@H]1c1ccc([N+](=O)[O-])cc1)N2C` (some centres not stated), `COC(=O)C1C2CC[C@H](C[C@@H]1c1ccc(N)c(Br)c1)N2C` (some centres not stated) is 3.4-fold lower in IC50: 13.1 nM for the first, 3.91 nM for the second. The second is the more potent here.

First: COC(=O)C1C2CC[C@H](C[C@H]1c1ccc(Cl)c(Cl)c1)N2C (some centres not stated)
Second: COC(=O)C1C2CC[C@H](C[C@@H]1c1cccc(Cl)c1)N2C (some centres not stated)
The IC50 of the first is 7.9-fold lower: 0.79 nM for the first, 6.27 nM for the second.

Compared with `COC(=O)C1C2CC[C@H](C[C@@H]1c1cccc(I)c1)N2C` (some centres not stated), `COC(=O)C1C2CC[C@H](C[C@@H]1c1cccc(F)c1)N2C` (some centres not stated) is 1.6-fold lower in IC50: 26.1 nM for the first, 16.4 nM for the second.

Going from `COC(=O)C1C2CC[C@H](C[C@@H]1c1ccc(N)c(I)c1)N2C` (some centres not stated) to `COC(=O)C1C2CC[C@H](C[C@@H]1c1ccc(F)c(C)c1)N2C` (stereo in doubt; 2x), the IC50 rises from 1.35 nM to 2.95 nM (2.2-fold).
